From patent US10543198B2 (Celgene Quanticel Research, Inc., priority 2014, dated 2020)

Tests used:
full-length human LSD1 = full-length human LSD1 (Homo sapiens (Human), UniProt O60341); assay: In Vitro Enzyme Inhibition Assay - LSD-1 (TR-FRET); format: biochemical; details: 0.1 nM LSD1, H3K4me1-biotin peptide
Procedure: This assay determines the ability of a test compound to inhibit LSD1 demethylase activity.
The enzymatic assay of LSD1 activity is based on Time Resolved-Fluorescence Resonance Energy Transfer (TR-FRET) detection.
The ability of the compounds disclosed herein to inhibit LSD1 activity was quantified and the respective IC50 value was determined.

THP-1 (AML) cells = assay: LSD1 CD11b Cellular Assay (flow cytometry); format: cell-based; details: Homo sapiens, 96 h; CD11b expression in THP-1 cells, 4 days incubation
Procedure: To analyze LSD1 inhibitor efficacy in cells, a CD11b flow cytometry assay was performed. LSD1 inhibition induces CD11b expression in THP-1 (AML) cells which can be measured by flow cytometry. […] LSD1 test compounds were serially diluted in DMSO. The dilutions were added to each well accordingly to a final concentration of 0.2% DMSO. The cells were incubated at 37 degrees Celsius in 5% CO2 for 4 days. 250 μL of each well was transferred to a well in a 96 well round bottom plate. The plate was centrifuged at 1200 rpm at 4 degrees Celsius in a Beckman Coulter Alegra 6KR centrifuge for 5 minutes. The media was removed leaving the cells at the bottom of the wells. The cells were washed in 100 μL cold HBSS (Hank's Balanced Salt Solution) plus 2% BSA (Bovine Serum Albumin) solution and centrifuged at 1200 rpm at 4 degrees Celsius for 5 minutes. The wash was removed. […] The cells were centrifuged and washed two times in 100 μl HBSS plus 2% BSA. After the final spin the cells were resuspended in 100 μL HBSS plus 2% BSA containing 1 ug/mL DAPI (4′,6-diamidino-2-phenylindole). The cells were then analyzed by flow cytometry in a BD FACSAria machine. Cells were analyzed for CD11b expression. The percent of CD11b expressing cells for each inhibitor concentration was used to determine an IC50 curve for each compound analyzed.

IC50 (full-length human LSD1) [µM]	IC50 (THP-1 (AML) cells) [µM]	Structure (SMILES)
< 0.1	< 0.1	CNC1CCN(c2cnc(C#CC(C)(C)O)c(-c3ccc(C#N)c(F)c3)n2)CC1 [Example 66, 2-fluoro-4-[3-(3-hydroxy-3-methylbut-1-ynyl)-6-[4-(methylamino)piperidin-1-yl]pyrazin-2-yl]benzonitrile]
< 0.1	< 0.1	CNC1CCN(c2cnc(-c3cc4ncn(C(C)C)c4cc3F)c(-c3ccc(C#N)c(F)c3)n2)CC1 [Example 67, 2-fluoro-4-[3-(6-fluoro-1-propan-2-ylbenzimidazol-5-yl)-6-[4-(methylamino)piperidin-1-yl]pyrazin-2-yl]benzonitrile]
< 0.1	< 0.1	CNC1CCN(c2cnc(-c3ccc4c(c3)ncn4C(C)C)c(-c3ccc(C#N)c(F)c3)n2)CC1 [Example 68, 2-fluoro-4-[6-[4-(methylamino)piperidin-1-yl]-3-(1-propan-2-ylbenzimidazol-5-yl)pyrazin-2-yl]benzonitrile]
< 0.1	< 0.1	CCn1cnc2cc(-c3ncc(N4CCC(NC)CC4)nc3-c3ccc(C#N)c(F)c3)c(F)cc21 [Example 69, 4-[3-(1-ethyl-6-fluorobenzimidazol-5-yl)-6-[4-(methylamino)piperidin-1-yl]pyrazin-2-yl]-2-fluorobenzonitrile]
< 0.1	< 0.1	CC(C)n1cnc2cc(-c3ncc(N4CCC(N)CC4)nc3-c3ccc(C#N)c(F)c3)c(F)cc21 [Example 70, 4-[6-(4-aminopiperidin-1-yl)-3-(6-fluoro-1-propan-2-ylbenzimidazol-5-yl)pyrazin-2-yl]-2-fluorobenzonitrile]
< 0.1	< 0.1	CCn1cnc2cc(-c3ncc(N4CCC(N)CC4)nc3-c3ccc(C#N)c(F)c3)c(F)cc21 [Example 71, 4-[6-(4-aminopiperidin-1-yl)-3-(1-ethyl-6-fluorobenzimidazol-5-yl)pyrazin-2-yl]-2-fluorobenzonitrile]
< 0.1	< 0.1	CC(C)n1cnc2cc(-c3ncc(N4CCC(N)CC4)nc3-c3ccc(C#N)c(F)c3)ccc21 [Example 72, 4-[6-(4-aminopiperidin-1-yl)-3-(1-propan-2-ylbenzimidazol-5-yl)pyrazin-2-yl]-2-fluorobenzonitrile]
< 0.1	< 0.1	CC(C)n1cnc2cc(-c3ncc(N4CCC(N)CC4)nc3-c3ccc(C#N)c(F)c3)c(F)c(F)c21 [Example 73, 4-[6-(4-aminopiperidin-1-yl)-3-(6,7-difluoro-1-propan-2-ylbenzimidazol-5-yl)pyrazin-2-yl]-2-fluorobenzonitrile]
< 0.1	< 0.1	CCn1cnc2cc(-c3ncc(N4CCC(N)CC4)nc3-c3ccc(C#N)c(F)c3)c(F)c(F)c21 [Example 74, 4-[6-(4-aminopiperidin-1-yl)-3-(1-ethyl-6,7-difluorobenzimidazol-5-yl)pyrazin-2-yl]-2-fluorobenzonitrile]
< 0.1	< 0.1	Cn1cnc2cc(-c3ncc(N4CCC(N)CC4)nc3-c3ccc(C#N)c(F)c3)c(F)c(F)c21 [Example 75, 4-[6-(4-aminopiperidin-1-yl)-3-(6,7-difluoro-1-methylbenzimidazol-5-yl)pyrazin-2-yl]-2-fluorobenzonitrile]

The next lines start with the compound.

Structure (SMILES)	IC50 (full-length human LSD1) [µM]	IC50 (THP-1 (AML) cells) [µM]
Cc1ccc(-c2nc3ccn(CC4(F)CCNC4)c3cc2-c2ccc(C#N)cc2)cc1 (centres unmarked) [Example 9, 4-[1-[(3-fluoropyrroridin-3-yl)methyl]-5-(4-methylphenyl)pyrrolo[3,2-b]pyridin-6-yl]benzonitrile]	< 0.1	0.1 to 1
Cn1cc2cc(-c3ncc(N4CCC(N)CC4)nc3-c3ccc(C#N)c(F)c3)ccc2n1 [Example 49, 4-[6-(4-aminopiperidin-1-yl)-3-(2-methyl-2H-indazol-5-yl)pyrazin-2-yl]-2-fluorobenzonitrile]	< 0.1	< 0.1
CNC1CCN(c2cnc(-c3ccc4nn(C)cc4c3)c(-c3ccc(C#N)c(F)c3)n2)CC1 [Example 50, 2-fluoro-4-[3-(2-methyl-2H-indazol-5-yl)-6-[4-(methylamino)piperidin-1-yl]pyrazin-2-yl]benzonitrile]	< 0.1	< 0.1
Cn1ncc2cc(-c3ncc(N4CCC(N)CC4)nc3-c3ccc(C#N)c(F)c3)ccc21 [Example 51, 4-[6-(4-aminopiperidin-1-yl)-3-(1-methyl-1H-indazol-5-yl)pyrazin-2-yl]-2-fluorobenzonitrile]	< 0.1	< 0.1
Cn1cc2ccc(-c3ncc(N4CCC(N)CC4)nc3-c3ccc(C#N)c(F)c3)cc2n1 [Example 52, 4-[6-(4-aminopiperidin-1-yl)-3-(2-methyl-2H-indazol-6-yl)pyrazin-2-yl]-2-fluorobenzonitrile]	< 0.1	< 0.1
Cn1nnc2cc(-c3ncc(N4CCC(N)CC4)nc3-c3ccc(C#N)c(F)c3)ccc21 [Example 53, 4-[6-(4-aminopiperidin-1-yl)-3-(1-methyl-1H-1,2,3-benzotriazol-5-yl)pyrazin-2-yl]-2-fluorobenzonitrile]	< 0.1	< 0.1
Cn1nnc2cc(-c3ncc(N4CCC(N)CC4)nc3-c3ccc(C#N)c(F)c3)cnc21 [Example 54, 4-[6-(4-aminopiperidin-1-yl)-3-{3-methyl-3H-[1,2,3]triazolo[4,5-b]pyridin-6-yl}pyrazin-2-yl]-2-fluorobenzonitrile]	< 0.1	< 0.1
Cn1ccc2cc(-c3ncc(N4CCC(N)CC4)nc3-c3ccc(C#N)c(F)c3)cnc21 [Example 55, 4-[6-(4-aminopiperidin-1-yl)-3-{1-methyl-1H-pyrrolo[2,3-b]pyridin-5-yl}pyrazin-2-yl]-2-fluorobenzonitrile]	< 0.1	< 0.1
CNC1CCN(c2cnc(-c3ccc4c(c3)nnn4C)c(-c3ccc(C#N)c(F)c3)n2)CC1 [Example 56, 2-fluoro-4-{6-[4-(methylamino)piperidyl]-3-(1-methylbenzotriazol-5-yl)pyrazin-2-yl}benzenecarbonitrile]	< 0.1	< 0.1
CNC1CCN(c2cnc(-c3ccc(N(C)C)nc3)c(-c3ccc(C#N)c(F)c3)n2)CC1 [Example 57, 4-{3-[6-(dimethylamino)(3-pyridyl)]-6-[4-(methylamino)piperidyl]pyrazin-2-yl}-2-fluorobenzenecarbonitrile]	< 0.1	< 0.1
CNC1CCN(c2cnc(-c3cnc(N(C)C)nc3)c(-c3ccc(C#N)c(F)c3)n2)CC1 [Example 58, 4-{3-[2-(dimethylamino)pyrimidin-5-yl]-6-[4-(methylamino)piperidyl]pyrazin-2-yl}-2-fluorobenzenecarbonitrile]	< 0.1	< 0.1
CNC1CCN(c2cnc(-c3cnc4c(cnn4C)c3)c(-c3ccc(C#N)c(F)c3)n2)CC1 [Example 59, 2-fluoro-4-{6-[4-(methylamino)piperidyl]-3-(1-methylpyrazolo[5,4-b]pyridin-5-yl)pyrazin-2-yl}benzenecarbonitrile]	< 0.1	< 0.1
CN(C)C1CCN(c2cnc(-c3ccc4nn(C)cc4c3)c(-c3ccc(C#N)c(F)c3)n2)CC1 [Example 60, 4-{6-[4-(dimethylamino)piperidyl]-3-(2-methyl(2H-indazol-5-yl))pyrazin-2-yl}-2-fluorobenzenecarbonitrile]	< 0.1	< 0.1
CNC1CCN(c2cnc(-c3cc4ncn(C)c4cc3F)c(-c3ccc(C#N)c(F)c3)n2)CC1 [Example 61, 2-fluoro-4-[3-(6-fluoro-1-methylbenzimidazol-5-yl)-6-[4-(methylamino)piperidin-1-yl]pyrazin-2-yl]benzonitrile]	< 0.1	< 0.1
CNC1CCN(c2cnc(-c3cc4ncn(C)c4c(F)c3F)c(-c3ccc(C#N)c(F)c3)n2)CC1 [Example 62, 4-[3-(6,7-difluoro-1-methylbenzimidazol-5-yl)-6-[4-(methylamino)piperidin-1-yl]pyrazin-2-yl]-2-fluorobenzonitrile]	< 0.1	< 0.1
CNC1CCN(c2cnc(-c3ccc(OC)c(F)c3)c(-c3ccc(C#N)c(F)c3)n2)CC1 [Example 63]	< 0.1	< 0.1
CNC1CCN(c2cnc(C#CC3(O)CCCC3)c(-c3ccc(C#N)c(F)c3)n2)CC1 [Example 64, 2-fluoro-4-[3-[2-(1-hydroxycyclopentyl)ethynyl]-6-[4-(methylamino)piperidin-1-yl]pyrazin-2-yl]benzonitrile]	< 0.1	< 0.1
CNC1CCN(c2cnc(-c3ccc4c(c3)ncn4C)c(-c3ccc(C#N)c(F)c3)n2)CC1 [Example 65, 2-fluoro-4-[6-[4-(methylamino)piperidin-1-yl]-3-(1-methylbenzimidazol-5-yl)pyrazin-2-yl]benzonitrile]	< 0.1	< 0.1
